Measured values reported in patent US20230099969A1, “TWO-PHOTON FLUORESCENT PROBE COMPOUND SELECTIVE FOR AMYLOID BETA PLAQUES AND METHOD FOR IMAGING AMYLOID BETA PLAQUES USING SAME” (Korea University Research and Business Foundation, priority 2020, published 2023).
Converted amounts (≈) assume the structure as drawn.

Experiments:
in vitro = settings: PAMPA
Procedure: (§3) The BBB-PAMPA was conducted following the manufacturer's instructions (pION, Inc, MA, USA). […] The transmembrane side to the donor part was coated with BBB-lipid solution and 200 μL acceptor buffer was added in the upper chambers of the PAMPA sandwich plate. After incubation for 4 h at 25° C., all samples were transferred to a new U.V plate and then the U.V spectra were measured at a wavelength from 250 nm to 498 nm with a multifunctional microplate reader (Tecan, Infinite M200 Pro, San Jose, Calif., USA) and the permeability rate (Pe, 10^−6 cm/s) was determined using pION PAMPA Explorer software (ver3.8).

Aβ fibrils = molecular target: T1, Aβ fibrils (Homo sapiens, UniProt P05067); test: Fluorescence response in the presence of Aβ fibrils; settings: Aβ fibrils 20 μM versus PBS containing 2% DMF
T1 construct: lyophilized Aβ1-42 peptides were dissolved in 100% HFIP; purchased GenicBio Limited (Shanghai, China)
T1 sequence (P05067 672-713 limits assumed): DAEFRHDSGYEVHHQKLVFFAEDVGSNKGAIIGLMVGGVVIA
Procedure: (§1) To measure spectra in the presence of analytes, stock solutions of ThT and IRI-1 were prepared in DMF and added to solutions of the analytes in PBS to finally obtain a solution containing 2% DMF. All emission spectra were obtained after 2 min stirring at 37° C. The excitation and emission slit widths were 3/5.
(§2) Aβ1-42 protein was prepared following a literature procedure (J. Hatai, L. Motiei, D. Margulies, J. Am. Chem. Soc. 2017, 139, 2136-2139). Briefly, lyophilized Aβ1-42 peptides were dissolved in 100% HFIP (1,1,1,3,3,3-hexafluoro-2-isopropanol) at a concentration of 2 mg mL^−1 and incubated at 25° C. for 2 h. After incubation, solution was removed under a gentle flow of argon. The peptide was dried using a lyophilizer for 40 h. AO (1 mg) was resuspended in aqueous NaOH (0.5 mL, 2 mM) and sonicated at 0° C. for 10 min. HFIP/NaOH-treated AO samples were diluted to 200 μM with PBS (0.6 mL, […], pH=7.4) and agitated using a shaker (Biofree) for 30 h. The solution was diluted to 20 μM with PBS (9.9 mL, 20 mM, pH=7.4), prior to each experiment.

[1] = BBB-penetrability PAMPA assay
Procedure: as §3

Aβ fibrils (Aβ1-42) = molecular target: T2, Aβ fibrils (Aβ1-42) (Homo sapiens, UniProt P05067); test: Aβ1-42 saturation titration (fluorescence at 566 nm); assay type: binding
T2 construct: lyophilized Aβ1-42 peptides were dissolved in 100% HFIP; purchased GenicBio Limited (Shanghai, China)
T2 sequence (P05067 672-713 limits assumed): as above
Procedure: as §2
Both Aβ1-42 and IRI-1 are virtually non-fluorescent, and a simplified formula can be used where the fluorescence intensity is directly proportional to the concentration of the (Aβ1-42-IRI-1) complex only:
With F: a fluorescence proportionality factor, [IRI1]: the initial concentration of IRI-1, [Aβ]: the initial concentration of Aβ1-42, N: the number of equivalent binding sites on the Aβ fibril relative to Aβ monomer, and Kd: the dissociation constant.
The results in FIG. 1D were obtained following a multi-parameter optimization of the experimental results following the fluorescence intensity at 566 nm, using a concentration of 10 μM Aβ1-42 and incremental concentrations of IRI-1 in PBS containing 2% DMF. The slit width was set at 3/3. The best fittings were obtained for N=¼, i.e. one binding site per 4 Aβ1-42, consistent with the hypothesized high affinity cross-β-sheet binding site on the protein fibril.

[2] = Fluorescence response to potential interferents; settings: metal ions, amino acids, thiols 20 μM in PBS, λem 566 nm
Procedure: as §1

[3] = molecular target: T3, bovine serum albumin (BSA) (Bos taurus, UniProt P02769); test: Fluorescence in the presence of BSA; settings: BSA 20 μM, PBS pH 7.4, 2% DMF
T3 construct: purchased
T3 sequence (P02769 25-607): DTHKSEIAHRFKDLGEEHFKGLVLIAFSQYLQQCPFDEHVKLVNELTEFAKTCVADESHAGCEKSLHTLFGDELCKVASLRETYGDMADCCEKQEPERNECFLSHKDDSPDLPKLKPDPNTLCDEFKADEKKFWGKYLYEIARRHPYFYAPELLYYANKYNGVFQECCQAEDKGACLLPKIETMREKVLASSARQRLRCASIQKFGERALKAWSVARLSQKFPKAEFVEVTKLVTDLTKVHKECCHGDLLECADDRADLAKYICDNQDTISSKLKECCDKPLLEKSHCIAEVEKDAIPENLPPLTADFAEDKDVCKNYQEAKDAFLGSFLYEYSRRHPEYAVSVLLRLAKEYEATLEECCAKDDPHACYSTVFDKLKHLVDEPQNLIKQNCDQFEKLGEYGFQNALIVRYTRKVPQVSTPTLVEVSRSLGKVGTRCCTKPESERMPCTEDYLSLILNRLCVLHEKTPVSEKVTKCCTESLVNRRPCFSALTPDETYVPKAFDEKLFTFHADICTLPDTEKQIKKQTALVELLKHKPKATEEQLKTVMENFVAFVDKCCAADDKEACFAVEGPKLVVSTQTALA
Procedure: as §1

[4] = molecular target: T4, human serum albumin (HSA) (Homo sapiens, UniProt P02768); test: Fluorescence in the presence of HSA; settings: HSA 20 μM, PBS pH 7.4, 2% DMF
T4 construct: purchased
T4 sequence (P02768 25-609): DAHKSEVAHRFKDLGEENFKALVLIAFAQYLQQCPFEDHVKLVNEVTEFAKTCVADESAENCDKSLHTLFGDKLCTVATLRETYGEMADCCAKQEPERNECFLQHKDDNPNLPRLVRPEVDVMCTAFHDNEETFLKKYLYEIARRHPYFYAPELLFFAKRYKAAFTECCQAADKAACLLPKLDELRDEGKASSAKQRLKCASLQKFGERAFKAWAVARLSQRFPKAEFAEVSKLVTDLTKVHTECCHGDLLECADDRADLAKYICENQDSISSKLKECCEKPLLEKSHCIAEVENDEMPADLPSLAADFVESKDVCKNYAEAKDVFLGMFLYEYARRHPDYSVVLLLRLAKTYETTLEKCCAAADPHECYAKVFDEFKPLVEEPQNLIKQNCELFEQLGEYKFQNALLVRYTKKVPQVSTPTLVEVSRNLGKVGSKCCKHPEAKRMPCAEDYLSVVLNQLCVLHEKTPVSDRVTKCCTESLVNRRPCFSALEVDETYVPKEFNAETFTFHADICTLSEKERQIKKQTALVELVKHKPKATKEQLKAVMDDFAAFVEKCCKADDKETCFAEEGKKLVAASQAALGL
Procedure: as §1

[5] = Fluorescence in mouse brain homogenates
Procedure: as §1
Male ICR mice (10-weeks-old) from Daehan Biolink Co. Ltd. (Eumseong, Korea) were used in this experiment. The mice were accommodated at a constant temperature (23±1° C.), humidity (60±10%), and a 12 h light/dark cycle with free access to water and food. The mice were handled in accordance with the Principle of Laboratory Animal Care (NIH Publication No. 80-23; revised 1978) and the Animal Care and Use Guidelines of KyungHee University, Seoul, Korea (approval number: KHUASP(SE)-18-130). Mice were anesthetized with tribromoethanol (20 μL/g of body weight, Sigma Aldrich, USA) and then, the whole brain was removed quickly. After the washing with 0.1 M PBS, the brain tissue was excised by scissors and homogenized with a pellet pestles cordless motor (Sigma Aldrich, USA) in 2 mL of 0.1 M PBS (pH 7.4). The mixture was centrifuged at 1,000 g (Smart R17 Plus centrifuge, Hanil Scientific, Korea) for 15 min at 4° C. and the supernatant was collected. The pooled brain homogenates of 3 mice were collected and diluted to a final volume of 6 mL with PBS and used for fluorescence studies.

[6] = Solubility of IRI-1 in PBS (absorbance at 405 nm); assay type: physicochemical; settings: aqueous buffer, kinetic from dmso stock, PBS containing 2% DMSO, read-out: concentration up to which the dye exists as a monomer in PBS, above which soluble aggregates form
Procedure: The absorbance of IRI-1 at different concentrations in the 0-50 μM range was recorded at 405 nm in a PBS solution containing 2% DMSO. Deviation from linearity indicates the formation of aggregates.

[7] = pH-dependent absorbance, pKa fitting; assay type: physicochemical; settings: PBS (10 mM) with pH adjustment; absorbance at 405 nm, pH 2-10, PBS 10 mM
Procedure: The absorbance of IRI-1 (10 μM) was recorded in PBS (10 mM), with pH adjustment, to maintain a constant salt concentration.

Photostability in DMF = assay type: physicochemical; settings: solution in DMF, halogen lamp irradiation 35 min
Procedure: A solution of IRI-1 with an absorbance of 1.0 at the maximum absorbance wavelength was prepared in DMF. A 3100 K halogen lamp (Olympus LG-PS2; 12 V, 100 W) was used for irradiation and the absorbance was recorded at 5 min intervals for 35 min.

SH-SYSY cells = test: Cell viability MTT assay; assay type: cell-based, human; settings: concentrations up to 50 μM, 24 h
Procedure: Cell viability was assessed by the MTT (3-4,5-dimethylthiazol-2-yl)-2,5-diphenyltetrazolium bromide) assay. SH-SYSY cells (1×10^4 per well) were treated with various concentrations of IRI-1 in a 96-well plate for 24 h at 37° C.

Aβ plaques [8] = molecular target: T5, Aβ plaques (Homo sapiens, UniProt P05067); test: Ex vivo two-photon microscopy imaging of brain slices; design: species or system 5xFAD-Tg mice; settings: 20 μM, 2 h incubation, n=15
T5 construct: from tissue; host or cells: brain of 5xFAD-Tg mice: ex vivo slices at 11 months, in vivo frontal cortex at 10-12 months
T5 sequence (P05067 672-713 limits assumed): as the sequence (P05067 672-713 limits assumed) above
Procedure: Brain tissues were isolated from 11-month-old 5xFAD-Tg mice. All animal protocols were approved by the Institutional Animal Care and Use Committee (IACUC) of KyungHee University, Korea (Approval number: KHUSAP (SE)-18-123). The isolated brain was immediately frozen with dry ice and horizontally sectioned by using a surgical blade (No. 10, […] safety razor Co., LTD, Japan). Sectioned brain tissues were immersed in a DMEM-buffered solution containing IBC 2 or IRI-1 (20 μM), and then incubated at 37° C. for different durations (0.5 h, 1 h and 2 h). After incubation, the brain tissues were washed with PBS (×3) and fixed in 4% paraformaldehyde solution until TPM imaging, using upright microscopy (Leica, Nussloch, Germany). […] TPM images were obtained by collecting the fluorescence from an emission channel of 580-779 nm. To compare the plaque and background signal of IBC 2 and IRI-1, TPM images analyzed by using Leica software. 15 Aβ-plaque regions as well as 15 background regions were randomly chosen for each dye at each incubation time. Bootstrap resampling (n=100,000) was performed on the 15 Aβ and background samples to estimate the population distribution of the signal to background ratios for each of the dyes at the different incubation times as well as to estimate the significance level of the difference of these population distributions.

Aβ plaques [9] = molecular target: T5, Aβ plaques; test: In vivo two-photon microscopy imaging; design: species or system 5xFAD-Tg mice; depth up to which individual Aβ plaques could be detected: unit not given here
Procedure: All animal studies and maintenance were approved by the Institutional Animal Care and Use Committee (IACUC) of Seoul National University, Korea. 10-12-month-old 5xFAD (Tg6799; Jackson Lab Stock No. 006554) AD model mice were anesthetized with the mixture of Tiletamine-Zolazepam (Virbac, France) and Xylazine (Bayer Korea, Korea) via intramuscular (IM) injection (1.2 mg kg^−1) and then fixed on a customized stereotactic heating plate (37° C., Live cell instrument, Seoul, Korea). The mouse scalp was sterilized with Povidone Iodine (Firson, Korea) and then removed. A drop of Epinephrine was applied to the incision site to relieve local pain and bleeding. The periosteum was also removed in this step. When the scalp and periosteum were clearly removed and the skull dried, a small hole (3 mm diameter) was carefully made in the parietal bone with a microdrill. A 5 mm round coverslip was attached to the surgery site with Loctite 454 and dental acrylate was applied around the site. A solution of IRI-1 in 25% DMSO/PBS (5 mg kg^−1) was injected intraperitoneally (i.p.) before TPM imaging. TPM live imaging was conducted using an LSM 7 MP two-photon laser-scanning microscope (Carl Zeiss Microscopy GmbH, Germany) equipped with a Chameleon-Ultra-II laser system (Coherent, USA). An appropriately tuned laser (780-920 nm wavelength, 30 mW intensity) was applied to the imaging site transiently. Emission signals were obtained through the red channel (555-610 nm), or blue channel (485-490 nm) NDD filter set. TPM images were processed and 3D reconstructed using Volocity Software (Perkin-Elmer, Waltham, Mass., USA).

[10] = pH 7.4, Permeability classification

CC(=O)[C@H]1CC[C@H]2[C@@H]3CCC4=CC(=O)CC[C@]4(C)[C@H]3CC[C@]12C [Progesterone, reference compound]
Papp at 4 h (in vitro; pH 7.4, Pe): 39.5 ± 5.59 ×10⁻⁶ cm/s | Papp at 4 h (in vitro; [10]): > 0.4 ×10⁻⁶ cm/s

Cc1ccc2c(c1)sc(-c1ccc(N(C)C)cc1)[n+]2C.[Cl-] [Thioflavin T]
fluorescence enhancement in the presence of Aβ fibrils (Aβ fibrils): 20 fold | Permeability classification [1]: Not permeable | Pe ([1]; pH 7.4, 4 h at 25° C., mean and standard deviation, n = 3): 0^c 10^−6 cm/s

CN(C)c1ccc(-c2ccc3cc(C#N)c(=N)oc3c2)cc1 [IRI-1]
Kd (Aβ fibrils (Aβ1-42); Aβ fibrils 10 μM, IRI-1 0-50 μM, PBS containing 2% DMF, nonlinear fitting, read-out: binding affinity toward Aβ fibrils, Kd): 374 ± 115 nM | N, number of equivalent binding sites on the Aβ fibril relative to Aβ monomer (Aβ fibrils (Aβ1-42); best fitting, one binding site per 4 Aβ1-42): ¼ | binding affinity relative to that previously reported for ThT (Aβ fibrils (Aβ1-42); versus literature value for ThT): two- to three-folds stronger | fluorescence enhancement in the presence of Aβ fibrils (Aβ fibrils): 167 fold | fluorescent response to potential interferants [2]: no or negligible fluorescence enhancement | fluorescence enhancement in the presence of BSA [3]: only relatively weak fluorescence enhancement | fluorescence enhancement in the presence of HSA [4]: only relatively weak fluorescence enhancement | fluorescence enhancement in the presence of mouse brain homogenates [5]: only relatively weak fluorescence enhancement | solubility [6]: 4.7 µM (≈ 1.36 µg/mL) | pKa [7]: 4.22 ± 0.12 | resistance to photobleaching (Photostability in DMF): relatively high resistance to photobleaching | cytotoxicity (SH-SYSY cells): no significant toxicity | signal-to-background ratio, elevation compared to IBC-2 (Aβ plaques [8]): approximately 3.75 fold | BBB penetration (Aβ plaques [9]; 5 mg kg^−1 i.p.): good BBB penetration | time to full saturation of fluorescence enhancement of Aβ plaques in the frontal cortex (Aβ plaques [9]; 5 mg kg^−1 i.p., excitation 920 nm): approximately 40 min | depth up to which individual Aβ plaques could be detected (Aβ plaques [9]; 3D two-photon imaging, 5 mg kg^−1 i.p.): ≤ 172 | overlap of images with co-administered MeO-X04 (Aβ plaques [9]; co-administration, frontal cortex): near perfect overlap | Papp at 4 h (in vitro; pH 7.4, Pe): 0.562 ± 0.053 ×10⁻⁶ cm/s | Papp at 4 h (in vitro; [10]): > 0.4 ×10⁻⁶ cm/s
